Laboratory results: US5976813A, “Continuous format high throughput screening” (priority 1997, dated 1999)

Columns and labels:
[1] = target: S. Cerevisiae Elongation Factor 3 (Saccharomyces cerevisiae, UniProt P16521); test: Two-step gel assay for phosphate generated by EF-3 ATPase activity stimulated by ribosome binding; format: biochemical; settings: inhibitor amounts 5 picomole to 200 picomole; FIG. 7
Procedure: A two-step gel assay for detecting phosphate generated by S. Cerevisiae Elongation Factor 3 ATPase activity stimulated by Ribosomes binding
When fungal elongation factor 3 (EF-3) interacts with ribosomes, […] is stimulated. The inventors have applied CF-HTS to the assay for this activity.
An enzyme gel containing EF-3 (a highly temperature sensitive enzyme) and yeast ribosomes in EF-3 assay buffer was prepared. A substrate gel containing 1 mM ATP in assay buffer was also prepared. Both gels contained 2% dimethyl sulfoxide in low melting agarose (Gibco BRL), and were prepared at 37° C. and allowed to set for 30 minutes at 4° C. Serial dilutions of Poly-L-lysine, an inhibitor of EF-3 used as a control sample, was spotted onto PVDC film and dried (sample matrix). The assay was then conducted as in Example 1 by pre-incubating the enzyme gel with the inhibitors on the sample matrix. Then the enzyme gel was placed in contact with the substrate gel for 20 minutes. As in Example 1, the enzyme and substrate gels were stained with Malachite green/Ammonium Molybdate color development cocktail. Then the enzyme gel was imaged with a CCD camera. The inhibitor spots appear as clearer zones in a green background. FIG. 7 illustrates color development on the gel where inhibitor amounts varied from 5 picomole to 200 picomole.

IL-8a receptor = test: Gel/filter CF-HTS control: ^125 I-IL-8 binding to HEK cells expressing the IL-8a receptor; settings: ^125 I-IL-8 in agarose gel diffusing through cell matrix; FIG. 12
Procedure: HEK cells (ATCC, Bethesda, M.D.) expressing the IL-8a receptor were plated on a 75 mm diameter transwell membrane filter (Corning Costar Corp, Cambridge, Mass.) at a density of about 20 million cells per plate. They were allowed to attach to the membrane filter overnight in buffer (RPMI from Life Technologies, Grand Island, N.Y.) containing 10 mM Hepes (Sigma, St Louis, Mo.) at pH 7.2 and 37° C. After the cells were attached to the filter, the media was removed, and the cells were washed with fresh buffer to remove any unattached cells. The filters were inverted cell-side down and placed at an angle to allow excess media to drain, and then dried for 20 minutes. This was timed so that the cell matrix could be immediately used in the assay described below.
The ligand matrix was prepared by soaking ^125 I labeled IL-8 (Amersham, Inc., Arlington Heights, Ill.) into an agarose gel made by mixing 0.1 g agarose with 10 ml buffer, heating until molten, and then casting in a 8×7×0.075 cm gel apparatus. The gels were soaked overnight at RT while slowly mixing on a rotating platform (New Brunswick Scientific Co., Inc, Edison, N.J.). After soaking, the gels were dried for 20 minutes at RT just prior to use. This was timed so that the gel could be immediately used in the assay. […]

VanA = settings: statement on known inhibitor used as positive control; cited from earlier work

S. Cerevisiae Elongation Factor 3, sequence (P16521 whole entry): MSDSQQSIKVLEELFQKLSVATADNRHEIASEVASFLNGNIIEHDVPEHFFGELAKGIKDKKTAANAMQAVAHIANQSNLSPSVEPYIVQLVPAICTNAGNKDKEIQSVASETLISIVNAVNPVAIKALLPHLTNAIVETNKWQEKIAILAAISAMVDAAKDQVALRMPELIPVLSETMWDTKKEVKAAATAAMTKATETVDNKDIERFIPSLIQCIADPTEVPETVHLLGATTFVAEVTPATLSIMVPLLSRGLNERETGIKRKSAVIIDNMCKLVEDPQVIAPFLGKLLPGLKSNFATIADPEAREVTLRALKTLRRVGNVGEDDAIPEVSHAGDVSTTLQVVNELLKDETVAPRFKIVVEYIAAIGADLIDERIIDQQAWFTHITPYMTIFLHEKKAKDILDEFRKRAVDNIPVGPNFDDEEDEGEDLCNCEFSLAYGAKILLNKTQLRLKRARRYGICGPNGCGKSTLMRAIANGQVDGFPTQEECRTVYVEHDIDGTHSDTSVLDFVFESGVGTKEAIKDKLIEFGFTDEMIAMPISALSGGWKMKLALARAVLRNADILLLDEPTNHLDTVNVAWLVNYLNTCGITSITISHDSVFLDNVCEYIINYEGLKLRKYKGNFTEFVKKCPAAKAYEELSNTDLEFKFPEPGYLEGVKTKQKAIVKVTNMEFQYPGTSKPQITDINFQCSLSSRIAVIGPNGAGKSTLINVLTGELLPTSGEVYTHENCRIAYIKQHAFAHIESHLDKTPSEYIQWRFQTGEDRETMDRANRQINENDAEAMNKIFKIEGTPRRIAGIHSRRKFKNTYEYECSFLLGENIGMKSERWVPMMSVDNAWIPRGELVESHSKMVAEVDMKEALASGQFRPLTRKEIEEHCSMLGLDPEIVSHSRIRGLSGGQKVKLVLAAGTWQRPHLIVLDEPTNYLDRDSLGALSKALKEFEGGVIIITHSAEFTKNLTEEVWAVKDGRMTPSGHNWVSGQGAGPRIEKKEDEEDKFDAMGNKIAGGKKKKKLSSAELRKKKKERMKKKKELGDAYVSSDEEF

## Poly-L-lysine
[1]
  inhibition of EF-3 in gel assay (clearer zones in green background): dose dependent signal of the inhibitor

## ^125 I-IL-8: ^125 I labeled IL-8 (Amersham)
IL-8a receptor
  binding to HEK cells expressing the IL-8a receptor: dose response

## N[C@@H]1CONC1=O [D-cycloserine]
VanA
  inhibition of VanA: inhibits VanA in a dose-dependent manner
